Source: US20140349955A1, “USE OF FLUORINE-CONTAINING WATER SOLUBLE PLATINUM COMPLEX IN PREPARING DRUGS FOR PREVENTION AND TREATMENT OF CANCERS” (GUDUI BIOPHARMA TECHNOLOGY INC., priority 2011, published 2014)
pIC50: −log10 of the molar value.

Tests used:
DU145 [1] = experiment: MTS cytotoxicity test, DU145; type: cell-based; conditions: 96 h, read-out: IC50 value in human tumor cells
Protocol: (§1) Containing 10% bovine fetal serum, 1 mM of sodium pyruvate, 2 mM of L-glutamine, 50 U/mL of penicillin, 50 μg/mL of streptomycin
(§2) Human tumor cells: dul45-human prostate cancer; MCF-7-human breast cancer; SK0V3-human ovarian carcinoma, HT-29-human colon cancer; A549-human non-small cell lung cancer (adenocarcinoma), H460-human non-small cell lung cancer (large cell carcinoma), and animal tumor cells: L1210-mice leukemia cells used in the following activity test experiments were all purchased from Shanghai An Yan Commercial Trade Co., Ltd.
(§3) MTS test method was used in cytotoxicity assay. The tumor cells of logarithmic phase were collected, and then the concentration of cell suspension was adjusted, 100 μL of the cell suspension was added to each well, the cells were placed at 1000-10000 cells/well (edge well filled with sterile PBS). Cells were incubated at 37° C. with 5% CO2 to make cell monolayer overspread the bottom of each well (96-well flat-bottomed microplate). 100 μL of different concentrations of the test compounds was added to each well. Each condition was measured in five replicates. The microplate was incubated at 37° C. with 5% CO2 for 96 h and checked with inverted microscope. MTS working reagent: To 2 mL of MTS (2 mg/mL, prepared by DPBS) was added 100 μL of PMS (1 mg/mL, prepared by DPBS). The cell culture medium was discarded after centrifugation, the cell culture plate was carefully washed 2-3 times with PBS. Before detecting the absorbance value (OD), to each sample containing well was added 100 μL of cell culture medium, then 20 μL of MTS working reagent was added. After incubation at 37° C. with 5% CO2 for 2 h, the OD (optical density) value was detected at 490 nm.
(§4) Control group: the conditions are the same as the above without adding the active ingredient of antitumor agents, and the OD value was detected at 490 nm on the end of the experiment.
(§5) The cell inhibiting rate of the drugs to tumor cell growth was calculated according to the following formula:
(§6) 1) Cell viability (%)=OD of treated group/OD of control group×100%
(§7) 2) The cell viabilities under the different drug concentrations were determined, and then plotted against drug concentration. The IC50 value is the corresponding concentration in the obtained curve when the cell viability was 50%.

A549 [2] = experiment: MTS cytotoxicity test, A549; type: cell-based; conditions: 96 h, read-out: IC50 value in human tumor cells
Protocol: as §1, §2, §3, §4, §5, §6, §7

SKOV3 = experiment: MTS cytotoxicity test, SKOV3; type: cell-based; conditions: 96 h, read-out: IC50 value in human tumor cells
Protocol: as §1, §2, §3, §4, §5, §6, §7

HT29 [3] = experiment: MTS cytotoxicity test, HT29; type: cell-based; conditions: 96 h, read-out: IC50 value in human tumor cells
Protocol: as §1, §2, §3, §4, §5, §6, §7

MCF7 [4] = experiment: MTS cytotoxicity test, MCF7; type: cell-based; conditions: 96 h, read-out: IC50 value in human tumor cells
Protocol: as §1, §2, §3, §4, §5, §6, §7

H460 [5] = experiment: MTS cytotoxicity test, H460; type: cell-based; conditions: 96 h, read-out: IC50 value in human tumor cells
Protocol: as §1, §2, §3, §4, §5, §6, §7

SK0V3 = experiment: Synergistic cytotoxicity test (MTS), SKOV3; type: cell-based, human; conditions: 96 h
Protocol: (§8) Containing 10% bovine fetal serum, 1 mM of sodium pyruvate, 2 mM of L-glutamine, 50 U/mL of penicillin, 50 μg/ mL of streptomycin.
(§9) Human tumor cells: du145-human prostate cancer; MCF-7-human breast cancer; SK0V3-human ovarian carcinoma, HT-29-human colon cancer; A549-human non-small cell lung cancer (adenocarcinoma), H460-human non-small cell lung cancer (large cell carcinoma), and animal tumor cells: L1210-mice leukemia cells used in the following activity test experiments were all purchased from Shanghai An Yan Commercial Trade Co., Ltd.
as §3, with “certain concentration solution of a mixture” for “different concentrations”, “fluorine-containing water-soluble platinum complex with other antitumor agents” for “test compounds”
(§10) Each of above experiment was repeated five times, and the cell viability was calculated according to the mean OD values.
(§11) Cell Viability (%)=(treated group OD value/control group OD value)×100
(§12) Control group: the conditions are the same as the above without adding the tested drug mixture (100 μL of culture medium was added in stead), and finally the absorbance was measured at 490 nm to obtain the OD value of the tumor cells.
(§13) Drug Group-1: only the fluorine-containing water-soluble platinum complex was added under the above conditions to obtain cell viability of tumor cells.
(§14) Drug Group-2: only the other chemotherapeutic drug (active ingredient) was added under the above conditions to obtain cell viability of tumor cells.
(§15) Drug Combination Group: the fluorine-containing water-soluble platinum complex and other chemotherapeutic drugs were added simultaneously under the above conditions to obtain cell viability of tumor cell. (2) Evaluation Method:
(§16) When the fluorine-containing water-soluble platinum complexes used in combination with other chemotherapy drugs, the inhibition effect on cancer cell proliferation is enhanced or synergistic, and the effect was calculated using the following formula:
(§17) Combination Effect (%)={[(A1-X)+(A2-X)]/(A1-A2)|}×100
(§18) wherein, A1 is the cell viability of drug group-1, A2 is the cell viability of drug group-2, X is the cell viability of drug combination group, (A1-A2)| is the absolute value of the cell viability difference between the two groups.
(§19) Calculated according to the above formula, when the results of [Combination Effect (%)]>+100%, that means the effect of inhibition on cell proliferation is enhanced or synergistic (3) Experimental Result: […]

HT29 [6] = experiment: Synergistic cytotoxicity test (MTS), HT29; type: cell-based, human; conditions: 96 h
Protocol: as §8, §9
as §3, with “certain concentration solution of a mixture” for “different concentrations”, “fluorine-containing water-soluble platinum complex with other antitumor agents” for “test compounds”
as §10, §11, §12, §13, §14, §15, §16, §17, §18, §19

A549 [7] = experiment: Synergistic cytotoxicity test (MTS), A549; type: cell-based, human; conditions: 96 h
Protocol: as §8, §9
as §3, with “certain concentration solution of a mixture” for “different concentrations”, “fluorine-containing water-soluble platinum complex with other antitumor agents” for “test compounds”
as §10, §11, §12, §13, §14, §15, §16, §17, §18, §19

H460 [8] = experiment: Synergistic cytotoxicity test (MTS), H460; type: cell-based, human; conditions: 96 h
Protocol: as §8, §9
as §3, with “certain concentration solution of a mixture” for “different concentrations”, “fluorine-containing water-soluble platinum complex with other antitumor agents” for “test compounds”
as §10, §11, §12, §13, §14, §15, §16, §17, §18, §19

DU145 [9] = experiment: Synergistic cytotoxicity test (MTS), DU145; type: cell-based, human; conditions: 96 h
Protocol: as §8, §9
as §3, with “certain concentration solution of a mixture” for “different concentrations”, “fluorine-containing water-soluble platinum complex with other antitumor agents” for “test compounds”
as §10, §11, §12, §13, §14, §15, §16, §17, §18, §19

MCF7 [10] = experiment: Synergistic cytotoxicity test (MTS), MCF7; type: cell-based, human; conditions: 96 h
Protocol: as §8, §9
as §3, with “certain concentration solution of a mixture” for “different concentrations”, “fluorine-containing water-soluble platinum complex with other antitumor agents” for “test compounds”
as §10, §11, §12, §13, §14, §15, §16, §17, §18, §19

[11] = other chemotherapy drug (at its listed dosage) combined with Complex 2 (dosage: 1 μM), SLOV3
[12] = other chemotherapy drug (at its listed dosage) combined with Complex 3 (dosage: 1 μM), SlOV3
[13] = other chemotherapy drug (at its listed dosage) combined with Complex 5 (dosage: 1 μM), SLOV3
[14] = other chemotherapy drug (at its listed dosage) combined with Complex 6 (dosage: 1 μM), SLOV3
[15] = other chemotherapy drug (at its listed dosage) combined with Complex 2 (dosage: 1 μM)
[16] = other chemotherapy drug (at its listed dosage) combined with Complex 3 (dosage: 1 μM)
[17] = other chemotherapy drug (at its listed dosage) combined with Complex 5 (dosage: 1 μM)
[18] = other chemotherapy drug (at its listed dosage) combined with Complex 6 (dosage: 1 μM)

Structure (SMILES) | pIC50 (DU145 [1]) | pIC50 (A549 [2]) | pIC50 (SKOV3) | pIC50 (HT29 [3]) | pIC50 (MCF7 [4]) | pIC50 (H460 [5]) | the effect of drug combination (Combination Effect) (SK0V3; [11]) | the effect of drug combination (Combination Effect) (SK0V3; [12]) | the effect of drug combination (Combination Effect) (SK0V3; [13]) | the effect of drug combination (Combination Effect) (SK0V3; [14]) | the effect of drug combination (Combination Effect) (HT29 [6]; [15]) | the effect of drug combination (Combination Effect) (HT29 [6]; [16]) | the effect of drug combination (Combination Effect) (HT29 [6]; [17]) | the effect of drug combination (Combination Effect) (HT29 [6]; [18]) | the effect of drug combination (Combination Effect) (A549 [7]; [15]) | the effect of drug combination (Combination Effect) (A549 [7]; [16]) | the effect of drug combination (Combination Effect) (H460 [8]; [17]) | the effect of drug combination (Combination Effect) (H460 [8]; [18]) | the effect of drug combination (Combination Effect) (DU145 [9]; [15]) | the effect of drug combination (Combination Effect) (DU145 [9]; [16]) | further results
O=C1[O][Pt]2([NH][C@@H]3CCCC[C@H]3[NH]2)[O]C(=O)C1(F)CCOC1O[C@H](CO)[C@@H](O)[C@H](O)[C@H]1O (stereo partly drawn) [Complex 2, cis-[trans-(1R, 2R)-diaminocyclohexane] Pt (II) (1—O—D-glucoside-propane-3-fluoro-3,3-dicarb oxylate)] | 5.31 | 6.17 | 5.00 | 5.81 | 6.18 | 5.01 |  |  |  |  |  |  |  |  |  |  |  |  |  |  | 
O=C1[O][Pt]2([NH][C@@H]3CCCC[C@H]3[NH]2)[O]C(=O)C1(F)CCCOC1O[C@H](CO)[C@@H](O)[C@H](O)[C@H]1O (stereo partly shown) [Complex 3] | 5.18 | 6.07 | 5.00 | 5.70 | 6.03 | 4.99 |  |  |  |  |  |  |  |  |  |  |  |  |  |  | 
C#Cc1cccc(Nc2ncnc3cc(OCCOC)c(OCCOC)cc23)c1 [Tarceva] |  |  |  |  |  |  | ○ (○ represents: 100% < the effect of drug combination < 300%) | ○ (○ represents: 100% < the effect of drug combination < 300%) | ○ (○ represents: 100% < the effect of drug combination < 300%) | ○ (○ represents: 100% < the effect of drug combination < 300%) | ⊚ (⊚ represents the effect of drug combination > 300%) | ⊚ (⊚ represents the effect of drug combination > 300%) | ⊚ (⊚ represents the effect of drug combination > 300%) | ⊚ (⊚ represents the effect of drug combination > 300%) | ⊚ (⊚ represents the effect of drug combination > 300%) | ⊚ (⊚ represents the effect of drug combination > 300%) | ⊚ (⊚ represents the effect of drug combination > 300%) | ⊚ (⊚ represents the effect of drug combination > 300%) | ○ (○ represents: 100% < the effect of drug combination < 300%) | ○ (○ represents: 100% < the effect of drug combination < 300%) | the effect of drug combination (Combination Effect) (DU145 [9]; [17]): ○ (○ represents: 100% < the effect of drug combination < 300%); the effect of drug combination (Combination Effect) (DU145 [9]; [18]): ○ (○ represents: 100% < the effect of drug combination < 300%); the effect of drug combination (Combination Effect) (MCF7 [10]; [15]): ○ (○ represents: 100% < the effect of drug combination < 300%); the effect of drug combination (Combination Effect) (MCF7 [10]; [16]): ○ (○ represents: 100% < the effect of drug combination < 300%); the effect of drug combination (Combination Effect) (MCF7 [10]; [17]): ○ (○ represents: 100% < the effect of drug combination < 300%); the effect of drug combination (Combination Effect) (MCF7 [10]; [18]): ○ (○ represents: 100% < the effect of drug combination < 300%)
N.N.[Cl][Pt+2][Cl] [Transplatin] |  |  |  |  |  |  | ○ (○ represents: 100% < the effect of drug combination < 300%) | ○ (○ represents: 100% < the effect of drug combination < 300%) | ○ (○ represents: 100% < the effect of drug combination < 300%) | ○ (○ represents: 100% < the effect of drug combination < 300%) | ⊚ (⊚ represents the effect of drug combination > 300%) | ⊚ (⊚ represents the effect of drug combination > 300%) | ⊚ (⊚ represents the effect of drug combination > 300%) | ⊚ (⊚ represents the effect of drug combination > 300%) | ⊚ (⊚ represents the effect of drug combination > 300%) | ⊚ (⊚ represents the effect of drug combination > 300%) | ⊚ (⊚ represents the effect of drug combination > 300%) | ⊚ (⊚ represents the effect of drug combination > 300%) | ○ (○ represents: 100% < the effect of drug combination < 300%) | ○ (○ represents: 100% < the effect of drug combination < 300%) | the effect of drug combination (Combination Effect) (DU145 [9]; [17]): ○ (○ represents: 100% < the effect of drug combination < 300%); the effect of drug combination (Combination Effect) (DU145 [9]; [18]): ○ (○ represents: 100% < the effect of drug combination < 300%); the effect of drug combination (Combination Effect) (MCF7 [10]; [15]): ⊚ (⊚ represents the effect of drug combination > 300%); the effect of drug combination (Combination Effect) (MCF7 [10]; [16]): ⊚ (⊚ represents the effect of drug combination > 300%); the effect of drug combination (Combination Effect) (MCF7 [10]; [17]): ⊚ (⊚ represents the effect of drug combination > 300%); the effect of drug combination (Combination Effect) (MCF7 [10]; [18]): ⊚ (⊚ represents the effect of drug combination > 300%)
